In US6495699B2, “Metalloproteinase inhibitors, pharmaceutical compositions containing them, and their use” (Agouron Pharmaceuticals Inc., priority 1996, dated 2002) one finds Ki, GelA (Ki,app) and logP data, which are given here for 1 molecule.

The target in series [1] is T1, fibroblast collagenase-1 catalytic domain (HFC) (Homo sapiens, UniProt P03956).
T1 construct: The catalytic domain of human collagenase-1 was expressed as a fusion protein with ubiquitin in E. coli; ubiquitin (cleaved yes); made in house; host or cells: E. coli
T1 sequence (P03956 100-269 limits assumed): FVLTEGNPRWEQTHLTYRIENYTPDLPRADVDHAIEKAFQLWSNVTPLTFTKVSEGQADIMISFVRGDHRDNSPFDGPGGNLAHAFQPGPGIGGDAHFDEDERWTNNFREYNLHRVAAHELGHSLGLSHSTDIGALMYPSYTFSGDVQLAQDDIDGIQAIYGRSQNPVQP
Put plainly: Fluorometric MCA-peptide hydrolysis assay, fibroblast collagenase-1 (HFC). It is filed as biochemical. To be noted: apparent Ki; 10 μM MCA peptide substrate, 37° C., pH 7.5; read-out: HFC (Ki,app). In a few lines: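 Human collagenase-1 catalytic domain, expressed in E. coli as ubiquitin fusion, was assayed with 10 μM MCA-Pro-Leu-Gly-Leu-DPA-Ala-Arg-NH2 at 37 °C in Tricine pH 7.5, 2% DMSO, over 60 min (ex 328/em 393 nm). Ki,app came from steady-state rates fitted to competitive or Morrison tight-binding equations.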

Series [2] addresses T2, human progelatinase A (GelA), catalytic and fibronectin-like portion (Homo sapiens, UniProt P08253).
T2 construct: The catalytic and fibronectin-like portion of human progelatinase A (GelA) was expressed as a fusion protein with ubiquitin; ubiquitin; made in house; host or cells: E. coli
Put plainly: Fluorometric MCA-peptide hydrolysis assay, gelatinase A (GelA). It is filed as biochemical. Conditions: apparent Ki; 10 μM MCA peptide substrate, 37° C., pH 7.5. In a few lines: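 E. coli-expressed ubiquitin fusion of human proGelA catalytic plus fibronectin-like domains, autoactivated; 10 μM MCA-Pro-Leu-Gly-Leu-DPA-Ala-Arg-NH2, pH 7.5 Tricine/NaCl/CaCl2/Zn buffer, 2% DMSO, 37° C, 60 min. Fluorescence 328/393 nm; steady-state rates fitted to competitive inhibition or Morrison tight-binding equation giving Ki,app (≈Ki since [S]<<Km).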

A short description of a further series: LogP. It is filed as physicochemical.

T2 sequence (P08253 110-465 limits assumed): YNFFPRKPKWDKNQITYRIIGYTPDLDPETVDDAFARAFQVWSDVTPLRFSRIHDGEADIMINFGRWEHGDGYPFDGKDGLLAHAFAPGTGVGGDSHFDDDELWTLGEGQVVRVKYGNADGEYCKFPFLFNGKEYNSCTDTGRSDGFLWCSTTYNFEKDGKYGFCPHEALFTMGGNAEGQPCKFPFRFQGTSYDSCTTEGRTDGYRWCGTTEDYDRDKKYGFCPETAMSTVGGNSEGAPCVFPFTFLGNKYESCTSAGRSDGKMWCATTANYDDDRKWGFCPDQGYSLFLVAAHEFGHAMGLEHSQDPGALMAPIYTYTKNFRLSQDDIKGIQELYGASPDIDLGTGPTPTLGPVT

What is called logP is a log measure of how a compound divides between an organic and an aqueous phase. Low readings indicate a more hydrophilic compound, high ones a more lipophilic compound. On to `CNC(=O)[C@@H](NC(=O)[C@@H](CC(=O)O)n1ccc(-c2ccc(-c3ccc(C#N)cc3)cc2)c1)C(C)(C)C` [Example 5(c), 3(R)-[3-(4′-Cyanobiphenyl-4-yl)-1H-pyrrol-1-yl]-N-[2,2-dimethyl-1(S)-(methylcarbamoyl)propyl]succinamic Acid], for which, in series [1], the Ki was 1500 nM. The GelA (Ki,app) in series [2] turned out to be 0.041 nM. In “LogP”, this molecule displayed a logP of 3.41.
